Measurements: the supplement of paper PMC10307832

Experiments:
Assay in all cases: relative viability (nuclei count vs DMSO), 5 days (fraction); higher = more cells survive
[1] = compound: C=CC(=O)N1CCC[C@@H](n2nc(-c3ccc(Oc4ccccc4)cc3)c3c(N)ncnc32)C1 [Ibrutinib] + CC(=O)Nc1cccc(-n2c(=O)n(C3CC3)c(=O)c3c(Nc4ccc(I)cc4F)n(C)c(=O)c(C)c32)c1 [Trametinib] (partner 0.02 µM)
How it was run: (§1)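 For relative viability, nuclei counts in treated wells were divided by those in vehicle wells. Lung cancer cell lines had been pin-tool dosed in 1536-well plates the day after seeding and cultured for 5 days, then fixed and stained in one step (final 0.05% Triton X-100, 1% formaldehyde, 1 ug/ml Hoechst) and imaged at 4×. Doses were one drug alone or a fixed anchor-drug dose plus five library-drug doses (not always all listed) in √10 steps, and values are duplicate-plate medians.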

[2] = compound: C=CC(=O)N1CCC[C@@H](n2nc(-c3ccc(Oc4ccccc4)cc3)c3c(N)ncnc32)C1 [Ibrutinib] + C[C@@H](Oc1cc(-c2cnn(C3CCNCC3)c2)cnc1N)c1c(Cl)ccc(F)c1Cl [Crizotinib] (partner 1 µM)
How it was run: as §1

[3] = compound: C=CC(=O)Nc1cc(-n2c(=O)ccc3cnc4ccc(-c5ccc(NS(C)(=O)=O)cc5)cc4c32)ccc1C [BMX-IN-1] + C[C@@H](Oc1cc(-c2cnn(C3CCNCC3)c2)cnc1N)c1c(Cl)ccc(F)c1Cl [Crizotinib] (partner 1 µM)
How it was run: as §1

[4] = compound: C=CC(=O)Nc1cc(-n2c(=O)ccc3cnc4ccc(-c5ccc(NS(C)(=O)=O)cc5)cc4c32)ccc1C [BMX-IN-1] + Nc1ncn([C@H]2C[C@H](O)[C@@H](CO)O2)c(=O)n1 [Decitabine] (partner 2 µM)
How it was run: as §1

Cell Line | relative viability ([1]; first compound 0.005 µM) | relative viability ([1]; first compound 0.01581 µM) | relative viability ([1]; first compound 0.05 µM) | relative viability ([1]; first compound 0.1581 µM) | relative viability ([1]; first compound 0.5 µM) | relative viability ([2]; first compound 0.005 µM) | relative viability ([2]; first compound 0.01581 µM) | relative viability ([2]; first compound 0.05 µM) | relative viability ([2]; first compound 0.1581 µM) | relative viability ([2]; first compound 0.5 µM) | relative viability ([3]; first compound 0.2 µM) | relative viability ([3]; first compound 0.6325 µM) | relative viability ([3]; first compound 2 µM) | relative viability ([4]; first compound 0.2 µM) | relative viability ([4]; first compound 0.6325 µM) | relative viability ([4]; first compound 2 µM) | relative viability ([3]; first compound 0.02 µM) | relative viability ([4]; first compound 0.02 µM)
LOU-NH91 | 0.744 | 0.74 | 0.725 | 0.783 | 0.655 | 0.697 | 0.557 | 0.666 | 0.738 | 0.526 | 0.764 | 0.752 | 0.731 | 0.799 | 0.842 | 0.828 |  | 
LU99A | 0.532 | 0.575 | 0.528 | 0.574 | 0.553 | 0.522 | 0.605 | 0.619 | 0.644 | 0.644 | 0.567 | 0.547 | 0.579 | 0.855 | 1.13 | 0.882 | 0.639 | 0.922
LXF-289 | 0.703 | 0.649 | 0.689 | 0.694 | 0.722 | 0.948 | 0.804 | 0.807 | 0.784 | 0.791 | 0.907 | 0.842 | 0.815 | 0.338 | 0.374 | 0.41 | 0.876 | 0.388
NCI-H23 | 0.313 | 0.38 | 0.362 | 0.366 | 0.361 | 0.539 | 0.528 | 0.527 | 0.592 | 0.466 | 0.538 | 0.419 | 0.5 | 0.295 | 0.338 | 0.296 | 0.501 | 0.326
NCI-H322M | 0.466 | 0.457 | 0.532 | 0.519 | 0.508 | 0.964 | 0.848 | 0.887 | 1.03 | 0.608 | 1.05 | 0.982 | 0.887 | 0.699 | 0.722 | 0.661 | 1.02 | 0.604
NCI-H358 | 0.102 | 0.194 |  | 0.138 | 0.116 | 0.706 | 0.45 | 0.401 | 0.682 | 0.303 | 0.611 | 0.538 | 0.512 | 0.2 | 0.239 | 0.214 | 0.498 | 0.181
NCI-H441 | 0.423 | 0.441 | 0.524 | 0.344 | 0.342 | 0.669 | 0.842 | 0.919 | 0.707 | 0.881 | 0.936 | 0.884 | 0.787 | 0.246 | 0.321 | 0.233 | 0.861 | 0.256
NCI-H460 | 0.133 | 0.0919 | 0.195 | 0.13 | 0.152 | 1.11 | 0.614 | 1.04 |  | 1.12 | 1.76 | 0.906 | 1.03 | 0.657 | 0.478 | 0.428 | 1.57 | 0.568
NCI-H520 | 0.486 | 0.651 | 0.653 | 0.794 | 0.621 | 0.725 | 0.578 | 0.727 | 0.704 | 0.861 | 1.08 | 0.79 | 0.795 | 0.494 | 0.449 | 0.529 | 1.37 | 0.549
NCI-H596 | 0.821 | 0.688 | 0.808 | 0.826 | 0.874 | 0.974 | 0.955 | 0.903 | 0.803 | 0.747 | 1.18 | 1.03 | 0.827 | 1.14 | 0.945 | 1.2 | 1.13 | 1.04
NCI-H647 | 0.415 | 0.445 | 0.478 | 0.443 | 0.529 | 1.03 | 1.07 | 1.13 | 1.06 | 0.993 | 1.45 | 1.1 | 0.937 | 0.502 | 0.479 | 0.462 | 1.41 | 0.407
NCI-H650 | 0.921 | 0.967 | 1.01 | 1.06 | 0.976 |  | 0.656 |  | 0.863 | 0.805 | 0.863 | 0.707 | 0.774 | 0.303 | 0.318 | 0.346 | 0.881 | 0.321
NCI-H661 | 0.509 | 0.478 | 0.436 | 0.532 | 0.433 |  |  | 1.09 | 0.904 | 0.873 | 0.96 | 1.14 | 0.976 | 0.528 | 0.634 | 0.525 |  | 0.617
NCI-H727 | 0.463 | 0.4 | 0.398 | 0.37 | 0.388 | 0.74 | 0.616 | 0.71 | 0.868 | 0.617 | 1.12 | 1.01 | 0.846 | 0.917 | 0.777 | 1.01 | 1.15 | 0.668
NCI-H838 | 0.342 | 0.484 | 0.528 | 0.523 | 0.499 | 0.881 | 0.842 | 0.979 | 0.873 | 0.793 | 0.983 | 0.834 | 0.877 | 0.439 | 0.466 | 0.444 | 1.14 | 0.5
NCI-H1355 |  | 0.395 | 0.363 | 0.433 | 0.368 |  | 0.957 | 0.971 | 1.15 | 0.827 | 1.17 | 1.08 | 1.13 | 0.368 | 0.355 | 0.401 | 1.27 | 0.357
NCI-H1437 | 0.53 | 0.51 | 0.555 | 0.491 | 0.624 | 0.848 | 0.874 | 0.901 | 1.02 | 0.916 | 1.01 | 1.1 | 1.07 | 0.603 | 0.623 | 0.575 | 1.3 | 0.672
NCI-H1650 | 0.881 | 0.535 | 0.46 | 0.527 | 0.477 | 0.845 | 0.919 | 0.934 | 1.09 | 0.744 | 1.11 | 1.03 | 0.918 | 0.385 | 0.473 | 0.548 | 1.15 | 0.438
